Holding throughout (assay): Fluo-4 calcium fluorescence assay, HEK293 cells
Holding throughout (conditions): agonist; co-expressed with ItypOrco; room temperature

One experiment concerns HabiOR3. The class given is cell-based, Hylobius abietis.
The test system of the next experiment is ItypOR6. The format is cell-based, Ips typographus.
The next experiment has as its system DponOR8^HsCO. The class given is cell-based, Dendroctonus ponderosae.
A further experiment relates to HabiOR4^HsCO. The format is cell-based, Hylobius abietis.

On to `OCCc1ccccc1` [2-phenylethanol], for which the EC50 (commonly the concentration that produces a half-maximal response) worked out at 8.54 µM in the experiment with HabiOR3, 3.45 µM in the experiment with ItypOR6 and 5.12 µM in the experiment on DponOR8^HsCO.
For the compound `CCC/C=C/CO` [E2-hexenol], the EC50 in the experiment on HabiOR4^HsCO was 3.88 µM.
Same read-out and setting: under `CCCCCCO` [1-hexanol] stands 2.85 µM.
Same read-out and setting: with `CCC/C=C\CO` [Z2-hexenol] the figure was 7.34 µM; with `CC/C=C\CCO` [Z3-hexenol], 7.99 µM.
